What was measured:
[1] = Body weight during 28-day oral supplementation; type: in vivo, Swiss Albino mice; details: mean ± SD, n = 8 mice
Experimental: (§1) Forty 8-week-old male Swiss Albino mice were housed in an animal room at a constant temperature (22±3° C.) and humidity (30%-70%) under a 12:12 h light-dark cycle with standard laboratory diet (Purina 5L79, Rat and Mouse 18% protein; PMI Nutrition International, Brentwood, Mo., USA). Distilled water was provided ad libitum. All animal experiments were reviewed and approved by the Institutional Animal Ethical Committee (IAEC) of Radiant Research Services Pvt. Ltd (Bangalore, India). All research was conducted in accordance with the guidelines of the committee for the purpose of control and supervision of experiments on animals (CPCSEA Registration Number-1803/PO/RcBi/S/2015/CPCSEA).
(§2) After one week of acclimation, the animals were randomly divided by body weight into five groups (n=8 per group in each test) for oral treatment once a day, at approximately same time each day (±1 hour), for 28 consecutive days: (1) vehicle control; (2) paraxanthine (3) L-theanine; (4) alpha-GPC; and (5) taurine. The dose administered to the mice was calculated using US Food and Drug Administration for human equivalence doses (HED), assuming a human weight of 60 kg. The following HED were used in this study: 100 mg paraxanthine, (ENFINITY™, Ingenious Ingredients, L.P Lewisville, Tex., USA; mouse dose: 20.5 mg/kg bw/day); 200 mg alpha-GPC mg (YangLing Daily Health Bio-Engineering Technology Co., Ltd; mouse dose: 41.09 mg/kg bw), 50 mg L-theanine (Hangzhou Qinyuan Natural Plant High-tech Co., Ltd; mouse dose: 10.28 mg/kg bw), and 500 mg taurine (Jiangyin Huachang Food Additive Co., Ltd; mouse dose: 102.75 mg/kg bw). 0.5% Carboxy Methyl Cellulose sodium was used as vehicle and the test item formulations were prepared daily. Dosing was conducted via oral gavage using disposable polypropylene syringes with sterilized stainless steel gavage tubes. The food intake and water consumption were monitored daily, and BW was recorded weekly. The last dose on day 28 was given 1 hour prior to testing.

[2] = Feed consumption during 28-day oral supplementation; type: in vivo, Swiss Albino mice; details: mean ± SD, n = 8 mice
Experimental: as §1, §2

male Swiss Albino mice [3] = assay: Forelimb grip strength test; type: in vivo; details: for Baseline forelimb grip strength: day 0 baseline, time holding steel bar, mean of three trials; for increase in forelimb grip strength compared to control: day 28, one hour after oral treatment, vs vehicle control
Experimental: After one week of acclimation, the animals were randomly divided by body weight into five groups (n=8 per group in each test) for oral treatment once a day, at approximately same time each day (±1 hour), for 28 consecutive days: (1) vehicle control; (2) paraxanthine (3) L-theanine; […] The dose administered to the mice was calculated using US Food and Drug Administration for human equivalence doses (HED), assuming a human weight of 60 kg. […] Dosing was conducted via oral gavage using disposable polypropylene syringes with sterilized stainless steel gavage tubes. The food intake and water consumption were monitored daily, and BW was recorded weekly. The last dose on day 28 was given 1 hour prior to testing. The forelimb grip strength was measured on day 0 and day 28 by using a stainless-steel grill to assess muscle strength (Orchid Scientific & Innovative India Pvt Ltd, India). Grip strength was measured one hour after treatment. Briefly, each mouse was placed on a grill chamber and the steel bar is inverted; grip strength is measured by recording the time each animal holds the steel bar. The maximum time for each trial was six minutes. Each animal performed three independent trials separated by six minutes intervals and the mean of the three trials was calculated.

male Swiss Albino mice [4] = assay: Treadmill endurance test; type: in vivo; details: for Distance traveled on treadmill / increase in distance traveled during treadmill exercise compared to control: after 28 days of supplementation; for Distance traveled on treadmill: run until exhaustion, n=8; for Distance traveled on treadmill / Baseline treadmill performance (distance): mean ± SD; for increase in distance traveled during treadmill exercise compared to control: vs vehicle control
Experimental: (2) paraxanthine (3) L-theanine; […] The dose administered to the mice was calculated using US Food and Drug Administration for human equivalence doses (HED), assuming a human weight of 60 kg. […] Dosing was conducted via oral gavage using disposable polypropylene syringes with sterilized stainless steel gavage tubes. The food intake and water consumption were monitored daily, and BW was recorded weekly. The last dose on day 28 was given 1 hour prior to testing. […] All animals were adapted to this procedure daily 60 minutes after dosing for five days in a week during the treatment period. On 28th day of each respective treatment, all animals were subjected to a muscle endurance test. […] Animals were subjected to the treadmill test until exhaustion. Distance traveled (cm) was measured as a marker of exercise performance.

[5] = Clinical biochemical profiles of serum; type: in vivo, Swiss Albino mice; details: serum at end of 28-day treatment; mean ± SD, n = 8
Experimental: (§3) After one week of acclimation, the animals were randomly divided by body weight into five groups (n=8 per group in each test) for oral treatment once a day, at approximately same time each day (±1 hour), for 28 consecutive days: (1) vehicle control; (2) paraxanthine (3) L-theanine; […] The dose administered to the mice was calculated using US Food and Drug Administration for human equivalence doses (HED), assuming a human weight of 60 kg. […] Dosing was conducted via oral gavage using disposable polypropylene syringes with sterilized stainless steel gavage tubes. The food intake and water consumption were monitored daily, and BW was recorded weekly. The last dose on day 28 was given 1 hour prior to testing. All animals were euthanized by 95% CO2 after 28 days of following their assigned treatment. Blood was collected immediately after euthanization by the retro-orbital route and was immediately centrifuged at 1500×g for 10 min at 4° C. before having all serum transferred into cryogenic tubes and stored at -80° C. The liver, heart, gastrocnemius and soleus were excised and weighed. Collected serum was analyzed for clinical biochemical variables including aspartate aminotransaminase (AST), alanine aminotransaminase (ALT), alkaline phosphatase (ALP), uric acid (UA), creatinine, total cholesterol (TC), triglycerides (TG), high-density lipoproteins (HDL), and low-density lipoproteins (LDL) were measured using an auto analyzer (EM360, ERBA Diagnostics Mannheim GmbH, Mannheim, Germany). Nitric oxide was analyzed using standard ELISA assay kits (Lot No: E-BC-[…], Elabscience, Houston, Tex., USA).

male Swiss Albino mice [6] = assay: Muscle weight (gastrocnemius, soleus) after 28 days; type: in vivo; details: after 28 days of supplementation; vs vehicle control
Experimental: (§4) (2) paraxanthine (3) L-theanine; […] The dose administered to the mice was calculated using US Food and Drug Administration for human equivalence doses (HED), assuming a human weight of 60 kg. […] Dosing was conducted via oral gavage using disposable polypropylene syringes with sterilized stainless steel gavage tubes. The food intake and water consumption were monitored daily, and BW was recorded weekly. The last dose on day 28 was given 1 hour prior to testing. All animals were euthanized by 95% CO2 after 28 days of following their assigned treatment. Blood was collected immediately after euthanization by the retro-orbital route and was immediately centrifuged at 1500×g for 10 min at 4° C. before having all serum transferred into cryogenic tubes and stored at -80° C. The liver, heart, gastrocnemius and soleus were excised and weighed.

[7] = Liver and heart mass / gross pathology; type: in vivo, Swiss Albino mice; details: after 28 days of treatment; mean ± SD, n = 8
Experimental: as §4

Nitric oxide = assay: Serum nitric oxide ELISA; type: in vivo, Swiss Albino mice; details: serum after 28 days of treatment; for Nitric Oxide: mean ± SD, n = 8; for increase in nitric oxide levels over control: vs vehicle control
Experimental: as §3

Row | feed consumption ([2]; Week 1) [grams] | feed consumption ([2]; Week 2) [grams] | feed consumption ([2]; Week 3) [grams] | feed consumption ([2]; Week 4) [grams] | ALP [5] [U/L] | Creatinine [5] [mg/dL] | Urea [5] [mg/dL] | Structure (SMILES) | body weight ([1]; Basal) [grams] | body weight ([1]; Week 1, oral once daily) [grams] | body weight ([1]; Week 2, oral once daily) [grams] | body weight ([1]; Week 3, oral once daily) [grams] | body weight ([1]; Week 4, oral once daily) [grams] | Baseline forelimb grip strength (male Swiss Albino mice [3]) | increase in forelimb grip strength compared to control (male Swiss Albino mice [3]) | Distance traveled on treadmill (male Swiss Albino mice [4]) | increase in distance traveled during treadmill exercise compared to control (male Swiss Albino mice [4]) | Baseline treadmill performance (distance) (male Swiss Albino mice [4]) [cm] | ALT [5] [U/L] | AST [5] [U/L] | increase in gastrocnemius muscle mass compared to control (male Swiss Albino mice [6]) | further results
1 | 40.91 ± 0.55 | 43.34 ± 0.40 | 45.49 ± 0.40 | 47.54 ± 0.42 | 179.3 ± 3.99 | 0.90 ± 0.16 | 29.38 ± 1.41 | C[N+](C)(C)CCOP(=O)([O-])OC[C@H](O)CO [Alpha-GPC, L-alpha glycerylphosphorylcholine] | 22.50 ± 0.44 | 24.10 ± 0.40 | 27.05 ± 0.50 | 29.14 ± 0.49 | 31.68 ± 0.44 | 91.00±0.40 | 8% | 1,695±53.0 centimeters | did not increase treadmill performance | 248.6±42.2 | 23.63 ± 1.51 | 38.88 ± 2.10 | no effect on muscle mass | increase in soleus muscle mass compared to control (male Swiss Albino mice [6]): no effect on muscle mass; Heart mass [7]: 189 ± 1.0 mg; Liver mass [7]: 1,869 ± 32 mg; Nitric Oxide (Nitric oxide): 9.21 ± 2.33 ng/mL; increase in nitric oxide levels over control (Nitric oxide): 42%
2 | 41.26 ± 0.86 | 43.50 ± 0.66 | 45.30 ± 0.48 | 47.60 ± 0.51 | 177.1 ± 3.68 | 0.89 ± 0.11 | 28.75 ± 1.28 | CCNC(=O)CC[C@H](N)C(=O)O [L-Theanine, L-theanine] | 22.41 ± 0.49 | 24.20 ± 0.56 | 26.76 ± 0.71 | 29.00 ± 0.60 | 31.60 ± 0.64 | 87.90±2.63 | 12% | 1,710±127 centimeters | 13% | 265.4±32.9 | 24.25 ± 1.28 | 40.25 ± 2.44 | 5% | increase in soleus muscle mass compared to control (male Swiss Albino mice [6]): but not soleus muscle mass; Heart mass [7]: 189 ± 2.3 mg; Liver mass [7]: 1,866 ± 43 mg; Nitric Oxide (Nitric oxide): 10.23 ± 1.26 ng/mL; increase in nitric oxide levels over control (Nitric oxide): 57%
3 | 40.95 ± 0.60 | 43.21 ± 1.25 | 45.21 ± 1.15 | 47.36 ± 1.08 | 180.4 ± 5.42 | 0.93 ± 0.14 | 29.38 ± 1.60 | NCCS(=O)(=O)O [Taurine, taurine] | 22.50 ± 0.49 | 24.08 ± 0.66 | 26.99 ± 0.82 | 29.06 ± 0.69 | 32.34 ± 3.06 | 90.94±0.85 | failed to reach statistical significance | 1,671±125 centimeters | did not increase treadmill performance | 256.9±29.3 | 25.00 ± 1.07 | 40.13 ± 2.36 | no effect on muscle mass | increase in soleus muscle mass compared to control (male Swiss Albino mice [6]): no effect on muscle mass; Heart mass [7]: 190 ± 1.2 mg; Liver mass [7]: 1,834 ± 52 mg; Nitric Oxide (Nitric oxide): 7.56 ± 0.29 ng/mL
4 | 41.73 ± 046 | 43.89 ± 0.68 | 46.00 ± 0.59 | 48.34 ± 0.68 | 179.4 ± 2.56 | 0.86 ± 0.11 | 29.13 ± 0.99 | Cn1c(=O)[nH]c2ncn(C)c2c1=O [Paraxanthine, 1,7-dimethylxanthine] | 22.01 ± 0.40 | 23.86 ± 0.55 | 26.95 ± 0.41 | 29.68 ± 0.45 | 32.80 ± 0.48 | 90.60±0.92 | 17% | 2,100±133 centimeters | 39% | 255.3±30.7 | 23.88 ± 0.99 | 39.50 ± 1.60 | 14% | increase in soleus muscle mass compared to control (male Swiss Albino mice [6]): 41%; Heart mass [7]: 190 ± 1.4 mg; Liver mass [7]: 1,870 ± 31 mg; Nitric Oxide (Nitric oxide): 13.06 ± 0.58 ng/mL; increase in nitric oxide levels over control (Nitric oxide): 101%
